Test [1] in a line: Measurement of ATP content in media (luciferin-luciferase reaction, luminometer). The following applies: luterial media with SSF (12 hr) compared with luterial media with SSH (12 hr). As to the method:
SSH and SSF were further added to the media and their effects on ATP production by luterial were examined. A mediacontaining SSF induced higher ATP production by luterialcompared to a mediawith SSH, thus finding a medium mix that is capable of efficiently increasing the ATP production by luterial (FIG. 18).
10 mL of each of four media, including a control, luterial, luterial with SSH (12 hr) and luterial with SSF (12 hr), was placed in a tube, and glucose (100 mg/mL) and ADP substrate (1 mM) were added thereto, followed by culture in water bath at 37° C. At 30-min intervals after the start of the culture, 100 μl of a sample was collected, placed in a tube, and diluted 10-fold with 900 μl of distilled water. Then, 10 μl of the sample was transferred into a fresh tube, and 100 μl of luciferase reagent contained in the ATP kit was added thereto, and measurement was immediately performed five times using a luminometer.

Test [2] relates to SKOV3 ovarian cancer cell line. Nature of the test: MTT assay, growth inhibition of SKOV3 ovarian cancer cell line. It is filed as cell-based. The following applies: positive control drug; cell line not stated (SKOV3 and A2780 tested, FIG. 27). For orientation: Tetrazolium dyes change colour on reduction, which living cells bring about.

The results in this text go back to US10590384B2, “Luterial and method for isolating and culturing the same” (LUTERION CO., LTD., priority 2014, dated 2020).

What is called IC50 is the concentration that gives 50% inhibition.

Molecules are shown by their SMILES.

Regarding `O=c1c(O)c(-c2ccc(O)c(O)c2)oc2cc(O)ccc12` [SSF, fisetin], the “ATP concentration in luterial media with additive” value in test [1] was “higher than that in the SSH-added group”.
On to `N.N.[Cl][Pt][Cl]` [cisplatin], for which the half-maximal inhibitory concentration (IC50) in test [2] was 100 µM.
